Test results reported in patent US10065963B2 (Incyte Corporation, priority 2015, dated 2018).
Where a name gives a salt, the structure may show the parent alone.

Legend:
[1] = target: PI3Kδ (p110δ/p85α) Recombinant Human Protein (Homo sapiens (Human), UniProt O00329); experiment: PI3Kδ scintillation proximity assay; assay type: biochemical
[2] = target: PI3Kγ (p110γ) Recombinant Human Protein (Homo sapiens (Human), UniProt P48736); experiment: PI3K-γ scintillation proximity assay; assay type: biochemical; conditions: 2 μM ATP, 20 μM PIP2
Chain of PI3Kγ (p110γ) Recombinant Human Protein (P48736 whole entry): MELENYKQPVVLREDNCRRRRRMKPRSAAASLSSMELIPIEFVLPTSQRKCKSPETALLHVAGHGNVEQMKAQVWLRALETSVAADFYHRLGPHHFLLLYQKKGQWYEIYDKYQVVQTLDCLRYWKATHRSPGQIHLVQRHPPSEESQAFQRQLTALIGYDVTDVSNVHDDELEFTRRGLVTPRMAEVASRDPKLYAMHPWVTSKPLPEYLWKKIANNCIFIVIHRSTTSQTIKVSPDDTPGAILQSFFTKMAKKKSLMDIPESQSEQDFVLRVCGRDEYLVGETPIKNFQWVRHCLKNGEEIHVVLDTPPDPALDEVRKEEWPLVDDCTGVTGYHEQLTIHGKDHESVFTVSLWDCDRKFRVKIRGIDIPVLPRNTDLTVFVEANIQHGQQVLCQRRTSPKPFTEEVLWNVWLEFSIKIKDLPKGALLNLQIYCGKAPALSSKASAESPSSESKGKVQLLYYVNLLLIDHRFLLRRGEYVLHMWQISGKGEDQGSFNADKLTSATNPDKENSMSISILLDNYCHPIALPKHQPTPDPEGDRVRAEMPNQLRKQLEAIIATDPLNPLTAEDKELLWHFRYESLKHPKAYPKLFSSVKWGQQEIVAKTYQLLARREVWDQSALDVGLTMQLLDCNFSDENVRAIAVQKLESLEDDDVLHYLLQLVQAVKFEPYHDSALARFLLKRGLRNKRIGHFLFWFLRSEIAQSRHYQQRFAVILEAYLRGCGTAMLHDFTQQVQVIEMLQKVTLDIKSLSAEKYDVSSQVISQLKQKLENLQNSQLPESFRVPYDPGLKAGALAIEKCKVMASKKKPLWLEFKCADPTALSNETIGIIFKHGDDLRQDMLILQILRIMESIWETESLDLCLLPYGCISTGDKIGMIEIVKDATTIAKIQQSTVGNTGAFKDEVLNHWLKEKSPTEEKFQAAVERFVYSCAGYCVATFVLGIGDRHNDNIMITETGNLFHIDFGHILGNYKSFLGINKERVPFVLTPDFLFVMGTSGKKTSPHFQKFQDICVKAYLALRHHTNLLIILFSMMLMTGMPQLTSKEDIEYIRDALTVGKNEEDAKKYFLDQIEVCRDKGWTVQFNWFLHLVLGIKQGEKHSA

Chain of PI3Kδ (p110δ/p85α) Recombinant Human Protein (O00329 whole entry): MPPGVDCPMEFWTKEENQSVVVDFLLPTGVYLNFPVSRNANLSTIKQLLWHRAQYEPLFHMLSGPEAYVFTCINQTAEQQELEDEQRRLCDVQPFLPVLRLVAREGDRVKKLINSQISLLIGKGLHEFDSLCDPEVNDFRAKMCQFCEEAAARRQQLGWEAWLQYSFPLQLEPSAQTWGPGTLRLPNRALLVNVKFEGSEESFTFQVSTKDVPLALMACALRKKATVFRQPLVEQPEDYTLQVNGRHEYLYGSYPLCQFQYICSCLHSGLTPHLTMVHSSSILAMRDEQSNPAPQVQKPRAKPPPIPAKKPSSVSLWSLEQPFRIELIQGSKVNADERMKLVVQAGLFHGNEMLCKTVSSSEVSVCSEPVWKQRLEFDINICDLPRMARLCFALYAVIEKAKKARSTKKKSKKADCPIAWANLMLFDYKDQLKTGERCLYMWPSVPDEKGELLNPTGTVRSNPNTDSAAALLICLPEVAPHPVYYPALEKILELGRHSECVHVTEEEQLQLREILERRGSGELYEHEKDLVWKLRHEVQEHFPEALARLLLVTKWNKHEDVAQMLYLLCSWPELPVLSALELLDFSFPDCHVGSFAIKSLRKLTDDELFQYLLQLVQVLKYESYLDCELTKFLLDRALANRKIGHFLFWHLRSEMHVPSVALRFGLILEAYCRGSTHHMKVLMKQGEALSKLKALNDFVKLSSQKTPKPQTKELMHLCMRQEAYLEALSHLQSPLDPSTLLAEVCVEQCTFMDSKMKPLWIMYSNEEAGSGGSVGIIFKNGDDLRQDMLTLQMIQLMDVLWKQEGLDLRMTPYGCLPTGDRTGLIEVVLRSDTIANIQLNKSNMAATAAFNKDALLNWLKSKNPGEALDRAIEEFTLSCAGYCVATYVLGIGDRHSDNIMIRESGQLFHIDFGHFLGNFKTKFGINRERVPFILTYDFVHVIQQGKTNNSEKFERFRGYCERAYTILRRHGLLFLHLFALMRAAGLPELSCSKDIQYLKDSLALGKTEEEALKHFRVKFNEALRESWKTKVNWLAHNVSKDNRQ
Chain of PI3Kδ (p110δ/p85α) Recombinant Human Protein (P27986 whole entry partner): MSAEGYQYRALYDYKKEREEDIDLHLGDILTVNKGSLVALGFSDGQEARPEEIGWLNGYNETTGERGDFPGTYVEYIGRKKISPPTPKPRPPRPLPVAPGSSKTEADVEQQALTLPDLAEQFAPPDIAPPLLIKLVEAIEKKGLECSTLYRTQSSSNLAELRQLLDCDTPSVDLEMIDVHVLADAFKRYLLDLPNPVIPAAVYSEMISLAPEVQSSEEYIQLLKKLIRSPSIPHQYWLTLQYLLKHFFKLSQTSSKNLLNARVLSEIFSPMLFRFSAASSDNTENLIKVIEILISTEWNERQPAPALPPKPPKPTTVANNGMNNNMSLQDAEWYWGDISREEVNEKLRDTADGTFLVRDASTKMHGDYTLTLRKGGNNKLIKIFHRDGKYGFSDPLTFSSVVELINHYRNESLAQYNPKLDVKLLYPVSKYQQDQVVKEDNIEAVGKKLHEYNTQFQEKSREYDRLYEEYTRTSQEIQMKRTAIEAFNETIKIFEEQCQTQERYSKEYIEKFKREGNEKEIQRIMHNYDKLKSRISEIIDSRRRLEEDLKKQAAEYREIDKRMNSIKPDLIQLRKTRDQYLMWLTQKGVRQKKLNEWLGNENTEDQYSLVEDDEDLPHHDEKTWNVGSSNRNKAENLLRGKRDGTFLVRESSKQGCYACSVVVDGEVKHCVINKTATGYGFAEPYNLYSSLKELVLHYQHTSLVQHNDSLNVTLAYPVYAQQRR

Row | Structure (SMILES) | IC50 ([1]; Table B, Assay C) | IC50 ([1]; 2 μM ATP, 20 μM PIP2) | IC50 [2]
1 | CCOc1c(C(C)n2nc(C)c3c(N)ncnc32)cc(Cl)c(F)c1C1CNC(=O)C1 (single isomer, unassigned) [Example 32b, 4-{3-[1-(4-amino-3-methyl-1H-pyrazolo[3,4-d]pyrimidin-1-yl)ethyl]-5-chloro-2-ethoxy-6-fluorophenyl}pyrrolidin-2-one, reference compound] | < 50 nM | – | –
2 | CCOc1c(C(C)NC(=O)c2c(N)nn3cccnc23)cc(Cl)c2cn(Cc3ccccc3)nc12 (centres unmarked) [Example 8a, 2-amino-N-(1-(2-benzyl-4-chloro-7-ethoxy-2H-indazol-6-yl)ethyl)pyrazolo[1,5-a]pyrimidine-3-carboxamide trifluoroacetate] | – | ≥ 2000 nM | < 2000 nM
3 | CCOc1c(C(C)NC(=O)c2c(N)nn3cccnc23)cc(Cl)c2cn(CC#N)nc12 (centres unmarked) [Example 7a, 2-amino-N-(1-(4-chloro-2-(cyanomethyl)-7-ethoxy-2H-indazol-6-yl)ethyl)pyrazolo[1,5-a]pyrimidine-3-carboxamide trifluoroacetate] | – | ≥ 2000 nM | > 2000 nM
4 | CCOc1c(C(C)NC(=O)c2c(N)nn3cccnc23)cc(Cl)c2cn(CCOC)nc12 (centres unmarked) [Example 5a, 2-amino-N-(1-(4-chloro-7-ethoxy-2-(2-methoxyethyl)-2H-indazol-6-yl)ethyl)pyrazolo[1,5-a]pyrimidine-3-carboxamide trifluoroacetate] | – | < 2000 nM | < 2000 nM
5 | CCOc1c(C(C)NC(=O)c2c(N)nn3cccnc23)cc(Cl)c2cn(C3CCC3)nc12 (centres unmarked) [Example 10a, 2-amino-N-(1-(4-chloro-2-cyclobutyl-7-ethoxy-2H-indazol-6-yl)ethyl)pyrazolo[1,5-a]pyrimidine-3-carboxamide trifluoroacetate] | – | ≥ 2000 nM | < 2000 nM
6 | CNC(=O)c1ccc(-c2c(C(C)NC(=O)c3c(N)nn4cccnc34)cc(Cl)c3cncn23)cn1 (racemic) [Example 132, 2-Amino-N-[1-{8-chloro-5-{6-[(methylamino)carbonyl]pyridin-3-yl}imidazo [1,5-a]pyridin-6-yl)ethyl]pyrazolo[1,5-a]pyrimidine-3-carboxamide trifluoroacetate salt] | – | < 500 nM | < 500 nM
7 | CC(NC(=O)c1c(N)nn2cccnc12)c1cc(Cl)c2nncn2c1-c1ccccc1 (racemic) [Example 185, 2-Amino-N-[1-(8-chloro-5-phenyl[1,2,4]triazolo[4,3-a]pyridin-6-yl)ethyl]pyrazolo[1,5-a]pyrimidine-3-carboxamide trifluoroacetate salt] | – | ≥ 2000 nM | < 500 nM
8 | CCOc1c(C(C)n2nc(C)c3c(N)ncnc32)cc(Cl)c(F)c1C1CNC(=O)C1 (single isomer, unassigned) [Example 32d, 4-{3-[1-(4-amino-3-methyl-1H-pyrazolo[3,4-d]pyrimidin-1-yl)ethyl]-5-chloro-2-ethoxy-6-fluorophenyl}pyrrolidin-2-one, reference compound] | 50 to 200 nM | – | –
9 | CC(NC(=O)c1c(N)nn2cccnc12)c1cc(C2CC2)c2cncn2c1-c1ccccc1 (racemic) [Example 117, 2-Amino-N-[1-(8-cyclopropyl-5-phenylimidazo[1,5-a]pyridin-6-yl)ethyl]pyrazolo[1,5-a]pyrimidine-3-carboxamide trifluoroacetate salt] | – | < 2000 nM | < 500 nM
10 | Cc1nnc2c(Cl)cc(C(C)NC(=O)c3c(N)nn4cccnc34)c(-c3ccccc3)n12 (racemic) [Example 184, 2-Amino-N-[1-(8-chloro-3-methyl-5-phenyl[1,2,4]triazolo[4,3-a]pyridin-6-yl)ethyl]pyrazolo[1,5-a]pyrimidine-3-carboxamide trifluoroacetate salt] | – | ≥ 2000 nM | < 500 nM
11 | CCc1n[nH]c2c(-c3ccccc3)c(C(C)NC(=O)c3c(N)nn4cccnc34)cc(Cl)c12 (centres unmarked) [Example 51, 2-Amino-N-(1-(4-chloro-3-ethyl-7-phenyl-1H-indazol-6-yl)ethyl)pyrazolo[1,5-a]pyrimidine-3-carboxamide trifluoroacetate] | – | ≥ 2000 nM | < 2000 nM
12 | CC(NC(=O)c1c(N)nn2cccnc12)c1cc(Cl)c2cn[nH]c2c1C1=CCNCC1 (centres unmarked) [Example 99, 2-Amino-N-{1-[4-chloro-7-(1,2,3,6-tetrahydropyridin-4-yl)-2H-indazol-6-yl]ethyl}pyrazolo[1,5-a]pyrimidine-3-carboxamide bis(trifluoroacetate)] | – | < 100 nM | < 500 nM
13 | CC(NC(=O)c1c(N)nn2cccnc12)c1cc(Cl)c2cn[nH]c2c1N1CCC(C(=O)N(C)C)CC1 (centres unmarked) [Example 108, 2-Amino-N-[1-(4-chloro-7-{4-[(dimethylamino)carbonyl]piperidin-1-yl}-2H-indazol-6-yl)ethyl]pyrazolo[1,5-a]pyrimidine-3-carboxamide trifluoroacetate] | – | < 500 nM | < 100 nM
14 | CCOc1c(C(C)n2nc(C)c3c(N)ncnc32)cc(C)c(C#N)c1-c1ccc(C(=O)N(C)C)nc1 (centres unmarked) [Example 31, 5-{3-[1-(4-amino-3-methyl-1H-pyrazolo[3,4-d]pyrimidin-1-yl)ethyl]-6-cyano-2-ethoxy-5-methylphenyl}-N,N-dimethylpyridine-2-carboxamide, reference compound] | < 50 nM | – | –
15 | CCOc1c(C(C)NC(=O)c2c(N)nc3ccc(N4CCCCC4)nn23)cc(Cl)c2cn[nH]c12 (centres unmarked) [Example 47, 2-Amino-N-(1-(4-chloro-7-ethoxy-1H-indazol-6-yl)ethyl)-6-(piperidin-1-yl)imidazo[1,2-b]pyridazine-3-carboxamide] | – | < 500 nM | < 500 nM
16 | CCOc1c(C(C)NC(=O)c2c(N)nn3cccnc23)cc(Cl)c2cn[nH]c12 (single isomer, unassigned) [Example 3b, 2-amino-N-[1-(4-chloro-7-ethoxy-1H-indazol-6-yl)ethyl]pyrazolo[1,5-a]pyrimidine-3-carboxamide trifluoroacetate] | – | ≥ 2000 nM | > 2000 nM
17 | CCOc1c(C(C)NC(=O)c2c(N)nn3cccnc23)cc(Cl)c2cn(C(C)C)nc12 (centres unmarked) [Example 11a, 2-amino-N-(1-(4-chloro-7-ethoxy-2-isopropyl-2H-indazol-6-yl)ethyl)pyrazolo[1,5-a]pyrimidine-3-carboxamide trifluoroacetate] | – | ≥ 2000 nM | < 2000 nM
18 | COc1c(C(C)n2nc(C)c3c(N)ncnc32)cc(Cl)c(C#N)c1C1CN(CCO)C1 (centres unmarked) [Example 30, 4-[1-(4-amino-3-methyl-1H-pyrazolo[3,4-d]pyrimidin-1-yl)ethyl]-6-chloro-2-[1-(2-hydroxyethyl)azetidin-3-yl]-3-methoxybenzonitrile] | < 50 nM | – | –
19 | CC(NC(=O)c1c(N)nn2cccnc12)c1cc(Cl)c2cncn2c1N1CCCC(F)C1 (centres unmarked) [Example 73C-73D, 2-Amino-N-{1-[8-chloro-5-(3-fluoropiperidin-1-yl)imidazo[1,5-a]pyridin-6-yl]ethyl}pyrazolo[1,5-a]pyrimidine-3-carboxamide] | – | ≥ 2000 nM | < 500 nM
20 | CCOc1c(C(C)n2nc(C)c3c(N)ncnc32)cc(Cl)c(F)c1C1CNC(=O)C1 (single isomer, unassigned) [Example 32a, 4-{3-[1-(4-amino-3-methyl-1H-pyrazolo[3,4-d]pyrimidin-1-yl)ethyl]-5-chloro-2-ethoxy-6-fluorophenyl}pyrrolidin-2-one, reference compound] | 50 to 200 nM | – | –
21 | CCOc1c(C(C)NC(=O)c2c(N)nn3cccnc23)cc(Cl)c2cn(CCO)nc12 (centres unmarked) [Example 6a, 2-amino-N-(1-(4-chloro-7-ethoxy-2-(2-hydroxyethyl)-2H-indazol-6-yl)ethyl)pyrazolo[1,5-a]pyrimidine-3-carboxamide trifluoroacetate] | – | < 2000 nM | < 2000 nM
22 | C[C@H](NC(=O)c1c(N)nn2cccnc12)c1cc(Cl)c2c(Cl)ncn2c1N1CCNS(=O)(=O)CC1 [Example 160, 2-Amino-N-{(1S)-1-[1,8-dichloro-5-(1,1-dioxido-1,2,5-thiadiazepan-5-yl)imidazo[1,5-a]pyridin-6-yl]ethyl}pyrazolo[1,5-a]pyrimidine-3-carboxamide trifluoroacetate salt] | – | < 100 nM | < 100 nM
23 | CC(NC(=O)c1c(N)nn2cccnc12)c1cc(Cl)c2cn[nH]c2c1OCCCN (centres unmarked) [Example 64, 2-Amino-N-{1-[7-(3-aminopropoxy)-4-chloro-1H-indazol-6-yl]ethyl}pyrazolo[1,5-a]pyrimidine-3-carboxamide bis(trifluoroacetate)] | – | < 500 nM | < 500 nM
24 | CCOc1c(C(C)NC(=O)c2c(N)nc3ccc(C)nn23)cc(Cl)c2cn[nH]c12 (centres unmarked) [Example 46, 2-Amino-N-(1-(4-chloro-7-ethoxy-1H-indazol-6-yl)ethyl)-6-methylimidazo[1,2-b]pyridazine-3-carboxamide] | – | < 500 nM | < 500 nM
25 | CC(NC(=O)c1c(N)nn2cccnc12)c1cc(Cl)c2c(C(F)(F)F)ncn2c1N1CCNS(=O)(=O)CC1 (racemic) [Example 159, 2-Amino-N-{1-[8-chloro-5-(1,1-dioxido-1,2,5-thiadiazepan-5-yl)-1-(trifluoromethyl)imidazo[1,5-a]pyridin-6-yl]ethyl}pyrazolo[1,5-a]pyrimidine-3-carboxamide trifluoroacetate salt] | – | < 2000 nM | < 500 nM
26 | COc1c(C(C)n2nc(C)c3c(N)ncnc32)cc(Cl)c(C#N)c1C1CN(C[C@H](C)O)C1 (stereo partly drawn) [Example 29, 4-[1-(4-amino-3-methyl-1H-pyrazolo[3,4-d]pyrimidin-1-yl)ethyl]-6-chloro-2-{1-[(2S)-2-hydroxypropyl]azetidin-3-yl}-3-methoxybenzonitrile] | < 50 nM | – | –
27 | CCOc1c(C(C)n2nc(C)c3c(N)ncnc32)cc(Cl)c(F)c1C1CNC(=O)C1 (single isomer, unassigned) [Example 32c, 4-{3-[1-(4-amino-3-methyl-1H-pyrazolo[3,4-d]pyrimidin-1-yl)ethyl]-5-chloro-2-ethoxy-6-fluorophenyl}pyrrolidin-2-one, reference compound] | < 50 nM | – | –
